In this test the test system is patient who is suffering from CRF of renal insufficiency at decompensation stage. As to the kind of experiment: Clinical application of the medicament in treating uremia and proteinuria (Embodiment 7 test method). The class given is in vivo, human. From the text:
Patient selection: choose the patient who is suffering from CRF of renal insufficiency at decompensation stage (The content of SCr is within the range of 186-442 umol/L) to study. The primary disease is chronic glomerulonephritis (CGN) and nephrotic syndrome (NS), except CRF caused by renal arteriosclerosis, diabetic nephropathy and renal cysts.
These investigated patients were randomly divided into groups, 50 patients in each group, aged 19-66 years (mean 44.6±12.6 years), with a course of disease 12-46 months (mean 22.6±8.6 months).
Treatment group 1-6: The patients in embodiment 1-6 received the medicament mentioned of the invention, with a dose of 3 g/day, three times a day.
Control group: The patients received the oral administration of coated aldehyde oxystarch 5 g-10 g, twice a day.
All groups were treated with 1 month as a course of treatment.
The patients stopped using Chinese and western medicine 2 weeks before treatment. […] They were given high quality low protein, low phosphorus and high calorie diet, correction of water and electrolyte disorders and acidosis, and anti-infection, in order to remove those reversible factors that may cause temporary renal dysfunction. Lotensin 5-20 mg was given to the patients with hypertension, once a day, or/and nifedipine 10-20 mg, three or four times a day.
X2 test was used for enumeration data and t test was used for measurement data. […]

Where [1] appears, read: 50 patients per group, after 3 courses of treatment (1 month each), medicament 3 g/day.
Where [2] appears, read: patients, after 3 courses of treatment.

In the case of coated aldehyde oxystarch [Contrast], under “50 patients per group, after 3 courses of treatment”, the “Total effective rate (%)” value is 64%. Moreover, under setting [1], the “Effective (case)” value was 22 case, the “Ineffective (case)” value came to 18 case and the “Markedly effective (case)” value is 10 case. Besides, under “Fib, patients, after 3 courses of treatment”, the “Blood coagulation factor I” value was 3.88 ± 0.48 g/L. For the setting “hemoglobin, patients, after 3 courses of treatment”, the Hb turned out to be 82.4 ± 9.5 g/L. Where the note is “patients, 24 h urine protein, after 3 courses of treatment”, this substance yielded a Urine protein of 2.78 ± 1.59 g/24 h. In addition, under setting [2], the Blood usea nitrogen was 16.0 ± 6.4 mmol/L, the SCr amounted to 298.5 ± 76.8 µmol/L and the Whole blood viscosity is reported as 4.98 ± 1.0. Where the note is “plasma albumin, patients, after 3 courses of treatment”, this substance gave an Alb of 30.4 ± 3.0 g/L.
